From patent publication US20170037014A1, “FUNGICIDAL PYRAZOLES” (E. I. DU PONT DE NEMOURS AND COMPANY, priority 2014, published 2017)
Marks after values point to notes of the source that are not given here.

Key:
[1] = system: Puccinia recondita f sp. tritici; test: Test A: wheat leaf rust, preventive spray on wheat seedlings, visual disease rating; type: in vivo; details: 100 = 100% disease control, 0 = no control
Description: General protocol for preparing test suspensions for Tests A-D: the test compounds were first dissolved in acetone in an amount equal to 3% of the final volume and then suspended at the desired concentration (in ppm) in acetone and purified water (50/50 mix by volume) containing 250 ppm of the surfactant Trem® 014 (polyhydric alcohol esters). The resulting test suspensions were then used in Tests A-D. The test suspension was sprayed to the point of run-off on wheat seedlings. The following day the seedlings were inoculated with a spore suspension of Puccinia recondita f sp. tritici (the causal agent of wheat leaf rust) and incubated in a saturated atmosphere at 20° C. for 24 h, and then moved to a growth chamber at 20° C. for 7 days, after which time visual disease ratings were made. In the Table, a rating of 100 indicates 100% disease control and a rating of 0 indicates no disease control (relative to the controls). A dash (−) indicates no test results. All results are for 250 ppm except where followed by an “*” which indicates 50 ppm, and where followed by an “**” which indicates 10 ppm

Septoria tritici = test: Test B: wheat leaf blotch, preventive spray on wheat seedlings, visual disease rating; type: in vivo; details: 100 = 100% disease control, 0 = no control
Description: General protocol for preparing test suspensions for Tests A-D: the test compounds were first dissolved in acetone in an amount equal to 3% of the final volume and then suspended at the desired concentration (in ppm) in acetone and purified water (50/50 mix by volume) containing 250 ppm of the surfactant Trem® 014 (polyhydric alcohol esters). The resulting test suspensions were then used in Tests A-D. The test suspension was sprayed to the point of run-off on wheat seedlings. The following day the seedlings were inoculated with a spore suspension of Septoria tritici (the causal agent of wheat leaf blotch) and incubated in a saturated atmosphere at 24° C. for 48 h, and then moved to a growth chamber at 20° C. for 19 days, after which time visual disease ratings were made. In the Table, a rating of 100 indicates 100% disease control and a rating of 0 indicates no disease control (relative to the controls). A dash (−) indicates no test results. All results are for 250 ppm except where followed by an “*” which indicates 50 ppm, and where followed by an “**” which indicates 10 ppm

Botrytis cinerea = test: Test C: tomato Botrytis, preventive spray on tomato seedlings, visual disease rating; type: in vivo; details: 100 = 100% disease control, 0 = no control
Description: General protocol for preparing test suspensions for Tests A-D: the test compounds were first dissolved in acetone in an amount equal to 3% of the final volume and then suspended at the desired concentration (in ppm) in acetone and purified water (50/50 mix by volume) containing 250 ppm of the surfactant Trem® 014 (polyhydric alcohol esters). The resulting test suspensions were then used in Tests A-D. The test suspension was sprayed to the point of run-off on tomato seedlings. The following day the seedlings were inoculated with a spore suspension of Botrytis cinerea (the causal agent of tomato Botrytis) and incubated in a saturated atmosphere at 20° C. for 48 h, and then moved to a growth chamber at 24° C. for 3 days, after which time visual disease ratings were made. In the Table, a rating of 100 indicates 100% disease control and a rating of 0 indicates no disease control (relative to the controls). A dash (−) indicates no test results. All results are for 250 ppm except where followed by an “*” which indicates 50 ppm, and where followed by an “**” which indicates 10 ppm

[2] = system: Blumeria graminis f sp. tritici; test: Test D: wheat powdery mildew, preventive spray on wheat seedlings, visual disease rating; type: in vivo; details: 100 = 100% disease control, 0 = no control
Description: General protocol for preparing test suspensions for Tests A-D: the test compounds were first dissolved in acetone in an amount equal to 3% of the final volume and then suspended at the desired concentration (in ppm) in acetone and purified water (50/50 mix by volume) containing 250 ppm of the surfactant Trem® 014 (polyhydric alcohol esters). The resulting test suspensions were then used in Tests A-D. The test suspension was sprayed to the point of run-off on wheat seedlings. The following day the seedlings were inoculated with a spore dust of Blumeria graminis f sp. tritici, (also known as Erysiphe graminis f. sp. tritici, the causal agent of wheat powdery mildew) and incubated in a growth chamber at 20° C. for 8 days, after which time visual disease ratings were made. In the Table, a rating of 100 indicates 100% disease control and a rating of 0 indicates no disease control (relative to the controls). A dash (−) indicates no test results. All results are for 250 ppm except where followed by an “*” which indicates 50 ppm, and where followed by an “**” which indicates 10 ppm

[3] = Zymoseptoria tritici, 50 ppm (*)

Structure (SMILES)	Test A disease control rating ([1]; 50 ppm (*))	Test B disease control rating (Septoria tritici; 50 ppm (*))	Test D disease control rating ([2]; 50 ppm (*))	Test C disease control rating (Botrytis cinerea; 50 ppm (*))	further results
CCC(C)c1c(C(O)c2c(F)cc(F)cc2F)c(C)nn1C (stereo not drawn) [Compound 23, 1,3-dimethyl-5-(1-methylpropyl)-α-(2,4,6-trifluorophenyl)-1H-pyrazole-4-methanol]					pest or weed control at 50 ppm ([1]; 50 ppm (*)): 97%; pest or weed control at 50 ppm (Septoria tritici; [3]): 94%; pest or weed control at 50 ppm (Botrytis cinerea; Botrytis cinerea, 50 ppm (*)): 31%; pest or weed control at 50 ppm ([2]; Blumeria graminis, 50 ppm (*)): 96%; melting point: 114 to 117 °C
CCC(C)c1c(Nc2ccc(F)c(F)c2)c(C)nn1C (centres unmarked) [Compound 20]	0* %	0* %	26* %		
CCC(C)c1c(Oc2ccc(F)cc2Cl)c(C)nn1C (centres unmarked) [Compound 7]					Test A disease control rating ([1]; 250 ppm): 0%; Test B disease control rating (Septoria tritici; 250 ppm): 0%; Test C disease control rating (Botrytis cinerea; 250 ppm): 0%; Test D disease control rating ([2]; 250 ppm): 0%
CCC(C)c1c(C(O)c2ccc(F)cc2Cl)c(C)nn1C (stereo not drawn) [Compound 9, α-(2-chloro-4-fluorophenyl)-1,3-dimethyl-5-(1-methylpropyl)-1H-pyrazole-4-methanol]					pest or weed control at 50 ppm ([1]; 50 ppm (*)): 100%; pest or weed control at 50 ppm (Septoria tritici; [3]): 99%; pest or weed control at 50 ppm (Botrytis cinerea; Botrytis cinerea, 50 ppm (*)): 99%; pest or weed control at 50 ppm ([2]; Blumeria graminis, 50 ppm (*)): 99%; melting point: 128 to 131 °C
C=C(C)Cc1c(C(O)c2ccc(F)cc2Cl)c(C)nn1C (centres unmarked) [Compound 5]	68* %	99* %	76* %	0* %	
CCC(C)c1c(Nc2c(F)cc(C#N)cc2F)c(C)nn1C (centres unmarked) [Compound 17]	0* %	35* %	69* %		
CCC(C)c1c(C(O)c2ccc(F)cc2F)c(C)nn1C (stereo not drawn) [Compound 10, α-(2,4-difluorophenyl)-1,3-dimethyl-5-(1-methylpropyl)-1H-pyrazole-4-methanol]					pest or weed control at 250 ppm ([1]; 250 ppm): 100%; pest or weed control at 250 ppm (Septoria tritici; Zymoseptoria tritici, 250 ppm): 99%; pest or weed control at 250 ppm (Botrytis cinerea; Botrytis cinerea, 250 ppm): 99%; pest or weed control at 250 ppm ([2]; Blumeria graminis, 250 ppm): 100%; melting point: 118 to 121 °C
Cn1nc(Br)c(C(O)c2ccc(F)cc2Cl)c1C1=CCCCC1 (centres unmarked) [Compound 28]	80* %	87* %	64* %	0* %	
Cc1nn(C)c(C2=CCCCC2)c1Oc1ccc(F)cc1Cl [Compound 13, 4-(2-chloro-4-fluorophenoxy)-5-(1-cyclohexen-1-yl)-1,3-dimethyl-1H-pyrazole]					pest or weed control at 250 ppm ([1]; 250 ppm): 9%; pest or weed control at 250 ppm (Septoria tritici; Zymoseptoria tritici, 250 ppm): 0%; pest or weed control at 250 ppm (Botrytis cinerea; Botrytis cinerea, 250 ppm): 0%; pest or weed control at 250 ppm ([2]; Blumeria graminis, 250 ppm): 67%
Cc1nn(C)c(CC(C)C)c1C(O)c1ccc(F)cc1Cl (stereo not drawn) [Compound 3, α-(2-chloro-4-fluorophenyl)-1,3-dimethyl-5-(2-methylpropyl)-1H-pyrazole-4-methanol]					pest or weed control at 10 ppm ([1]; 10 ppm (**)): 89%; pest or weed control at 10 ppm (Septoria tritici; Zymoseptoria tritici, 10 ppm (**)): 100%; pest or weed control at 10 ppm (Botrytis cinerea; Botrytis cinerea, 10 ppm (**)): 0%; pest or weed control at 10 ppm ([2]; Blumeria graminis, 10 ppm (**)): 71%; melting point: 159 to 162 °C
Cc1nn(C)c(C2CCCCC2)c1Oc1ccc(F)cc1Cl [Compound 12, 4-(2-chloro-4-fluorophenoxy)-5-cyclohexyl-1,3-dimethyl-1H-pyrazole]					pest or weed control at 250 ppm ([1]; 250 ppm): 79%; pest or weed control at 250 ppm (Septoria tritici; Zymoseptoria tritici, 250 ppm): 19%; pest or weed control at 250 ppm (Botrytis cinerea; Botrytis cinerea, 250 ppm): 9%; pest or weed control at 250 ppm ([2]; Blumeria graminis, 250 ppm): 90%; melting point: 75 to 79 °C
Cc1nn(C)c(C(C)C)c1C(O)c1ccc(F)cc1F (centres unmarked) [Compound 2]	57* %	99* %	99* %	0* %	
CCC(C)c1c(Nc2c(F)cc([N+](=O)[O-])cc2F)c(C)nn1C (centres unmarked) [Compound 16]	0* %	22* %	0* %		
CC=C(C)c1c(Oc2ccc(F)cc2Cl)c(C)nn1C [Compound 4]					Test A disease control rating ([1]; 250 ppm): 0%; Test B disease control rating (Septoria tritici; 250 ppm): 0%; Test C disease control rating (Botrytis cinerea; 250 ppm): 39%; Test D disease control rating ([2]; 250 ppm): 56%
CCC(C)c1c(Nc2c(F)cc(F)cc2F)c(C)nn1C (centres unmarked) [Compound 15]	0* %	1* %	0* %		
CCC(C)c1c(C(O)c2c(F)cccc2F)c(C)nn1C (centres unmarked) [Compound 25]	74* %	63* %	86* %	17* %	
Cc1nn(C)c(C2CCCC2)c1C(O)c1ccc(F)cc1Cl (centres unmarked) [Compound 19]	89* %	100* %	89* %	0* %	
CC=C(C)c1c(C(O)c2ccc(F)cc2Cl)c(Br)nn1C (centres unmarked) [Compound 27]	99* %	100* %		58* %	Test D disease control rating ([2]; 250 ppm): 86%
Cc1nn(C)c(C2CCCC2)c1C(O)c1ccc(F)cc1F (centres unmarked) [Compound 26]	74* %	97* %	90* %	26* %	
CCC(C)c1c(Nc2ccc(F)cc2Cl)c(C)nn1C (centres unmarked) [Compound 18]	0* %	0* %	0* %		
